Laboratory results reported in US20250353891A1 (MEDIMMUNE LIMITED, priority 2022, published 2025).
Starred links: 1 amine or outer side, 2 acyl side, 3 side chain; linkers in the order of their positions; H or OH if unused. Non-standard residues stand in square brackets, D forms with d. Residues, ends and D or L forms follow the SMILES beside them. Groups on a side chain read outwards from the residue. *: point of attachment. Dip = N[C@H](C(=O)O)C(c1ccccc1)c1ccccc1; γGlu = O=C(O)[C@H](CCC(=O)[*:2])N[*:1]; Stearoyl = CCCCCCCCCCCCCCCCCC(=O)*; Palmitoyl = CCCCCCCCCCCCCCCC(=O)*; αMeF = C[C@](N)(Cc1ccccc1)C(=O)O; PEG4 = NCCOCCOCCOCCOCCC(=O)O; Nle = CCCC[C@H](N)C(=O)O; PEG2 = NCCOCCOCCC(=O)O; Aib = CC(C)(N)C(=O)O

Key:
[1] = Mouse acute food intake study; type: in vivo; conditions: male C57Bl/6 mice, s.c., dose 10 nmol/kg, cumulative food intake at 24 hr vs vehicle
Method: Male C57Bl/6 mice obtained from Jackson Laboratories or Charles River at 8-9 weeks of age and were housed one per cage in BioDaq (Research Diets) cages. Mice were placed on Alpha Dri bedding, standard chow diet (Envigo, 2018) and given water pouches. Mice were allowed to acclimate for 1-2 weeks. Body weight was measured to ensure appropriate acclimation. After acclimation, mice were sham dosed a minimum of 2 times prior to initiation of food intake study. On study day, mice were placed in clean cage bottoms, weighed, and fasted for 6-8 hours. Mice were sorted into groups based on average 24-hour food intake data and body weight. 1-2 hours prior to lights out, mice were dosed subcutaneously with one vehicle or test peptide dissolved in an appropriate vehicle at 5 mL/kg. Mice were left undisturbed and allowed access to food and water for 48 hours. Automated food intake was monitored in the BioDaq system was monitored during this time. Discrete food intake data was exported into MS Excel from which cumulative food intake data was generated and analyzed.

[2] = biological target: human GLP-1 receptor (hGLP-1R) (Homo sapiens, UniProt P43220); experiment: cAMP production (HTRF) in CHO cells expressing hGLP-1R; type: cell-based; design: expressed in transfected cells; conditions: for EC50: Table 6, peptides modified at position 17, cAMP in CHO hGLP-1R cells, geometric mean, read-out: hGLP-1R EC50; for % Relative Potency Ratio: Table 6, % GLP-1R activity relative to GLP-1 / % GlucR activity relative to glucagon
Chain of human GLP-1 receptor (hGLP-1R) (P43220 24-463): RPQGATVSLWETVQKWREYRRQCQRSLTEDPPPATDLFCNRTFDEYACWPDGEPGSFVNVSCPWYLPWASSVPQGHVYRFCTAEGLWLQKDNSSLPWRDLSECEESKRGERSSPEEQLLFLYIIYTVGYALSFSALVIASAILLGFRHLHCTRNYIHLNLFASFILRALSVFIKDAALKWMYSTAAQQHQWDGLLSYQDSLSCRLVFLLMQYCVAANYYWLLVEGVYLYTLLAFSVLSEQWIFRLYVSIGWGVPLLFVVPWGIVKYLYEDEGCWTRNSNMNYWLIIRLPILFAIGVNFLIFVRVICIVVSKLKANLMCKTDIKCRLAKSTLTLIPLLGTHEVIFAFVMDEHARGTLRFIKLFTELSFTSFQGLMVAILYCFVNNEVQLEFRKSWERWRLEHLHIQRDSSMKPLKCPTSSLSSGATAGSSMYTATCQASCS
How it was run: (§1)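 Potency values represent EC50 from 4-parameter logistic curves of HTRF % Delta F signal. Receptor-expressing CHO cells (hGCGR 2×10^5 cells/mL, hGLP-1R 1×10^5 cells/mL) were exposed for 30 min at room temperature before two-step cAMP detection.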

[3] = biological target: human glucagon receptor (hGCGR) (Homo sapiens, UniProt P47871); experiment: cAMP production (HTRF) in CHO cells expressing hGCGR; type: cell-based; design: expressed in transfected cells; conditions: Table 6, peptides modified at position 17; cAMP in CHO hGCGR cells; geometric mean; read-out: hGluc-R EC50
Chain of human glucagon receptor (hGCGR) (P47871 26-477): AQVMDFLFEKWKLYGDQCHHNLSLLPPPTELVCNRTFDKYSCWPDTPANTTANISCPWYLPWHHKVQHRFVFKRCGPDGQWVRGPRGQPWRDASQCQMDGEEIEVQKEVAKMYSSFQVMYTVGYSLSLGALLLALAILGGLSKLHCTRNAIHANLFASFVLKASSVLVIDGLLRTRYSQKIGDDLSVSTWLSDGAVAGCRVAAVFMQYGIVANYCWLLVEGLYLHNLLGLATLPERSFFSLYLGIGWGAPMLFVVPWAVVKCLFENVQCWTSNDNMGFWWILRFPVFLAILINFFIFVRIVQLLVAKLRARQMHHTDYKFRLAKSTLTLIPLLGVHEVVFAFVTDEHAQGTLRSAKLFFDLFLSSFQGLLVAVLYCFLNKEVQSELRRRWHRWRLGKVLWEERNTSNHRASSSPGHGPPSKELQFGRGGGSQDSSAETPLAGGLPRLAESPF
How it was run: as §1

Row | EC50 [2] [pM] | % Relative Potency Ratio [2] | EC50 [3] [pM] | SMILES | 24 hr % Vehicle Food Intake [1] [%]
1 | 3.39 | 3.4 | 5.91 | CCCCCCCCCCCCCCCCCC(=O)N[C@@H](CCC(=O)N[C@@H](CCC(=O)NCCOCCOCCC(=O)NCCOCCOCCC(=O)NCCCC[C@H](NC(=O)[C@H](CO)NC(=O)[C@H](CC(=O)O)NC(=O)[C@H](CC(C)C)NC(=O)[C@@H](NC(=O)[C@H](CCCCN)NC(=O)[C@H](CO)NC(=O)[C@@H](NC(=O)[C@H](CC(=O)O)NC(=O)[C@H](CO)NC(=O)[C@@H](NC(=O)[C@](C)(Cc1ccccc1)NC(=O)[C@H](CO)NC(=O)CNC(=O)[C@H](CCC(N)=O)NC(=O)[C@H](CO)NC(=O)[C@@H](N)Cc1c[nH]cn1)[C@@H](C)O)C(C)C)C(c1ccccc1)c1ccccc1)C(=O)N[C@@H](C)C(=O)N[C@@H](C)C(=O)N[C@@H](CCC(N)=O)C(=O)N[C@@H](CC(=O)O)C(=O)N[C@@](C)(Cc1ccccc1)C(=O)N[C@H](C(=O)N[C@@H](CCC(=O)O)C(=O)NC(C)(C)C(=O)N[C@@H](CC(C)C)C(=O)N[C@@H](CCC(=O)O)C(=O)N[C@@H](C)C(=O)NCC(=O)NCC(N)=O)C(C)C)C(=O)O)C(=O)O [Peptide 46] (H-HSQGS[αMeF]TSDVSK[Dip]LDSK([PEG2-PEG2-γGlu-γGlu-Stearoyl])AAQD[αMeF]VE[Aib]LEAGG-NH2; N-terminus assumed) | 72.1
2 | 1.1 | 8.4 | 4.67 | CCCCCCCCCCCCCCCC(=O)N[C@@H](CCC(=O)NCCOCCOCCOCCOCCC(=O)NCCCC[C@H](NC(=O)[C@@H](NC(=O)[C@H](CC(=O)O)NC(=O)[C@H](CC(C)C)NC(=O)[C@](C)(Cc1ccccc1)NC(=O)[C@H](CCCCN)NC(=O)[C@H](CO)NC(=O)[C@@H](NC(=O)[C@H](CC(=O)O)NC(=O)[C@H](CO)NC(=O)[C@@H](NC(=O)[C@H](Cc1ccccc1)NC(=O)[C@@H](NC(=O)CNC(=O)[C@H](CCC(N)=O)NC(=O)C(C)(C)NC(=O)[C@@H](N)Cc1c[nH]cn1)[C@@H](C)O)[C@@H](C)O)C(C)C)C(C)C)C(=O)N[C@@H](CCCNC(=N)N)C(=O)N[C@@H](C)C(=O)N[C@@H](CCC(N)=O)C(=O)N[C@@H](CC(=O)O)C(=O)N[C@@](C)(Cc1ccccc1)C(=O)N[C@H](C(=O)N[C@@H](CCC(=O)O)C(=O)NC(C)(C)C(=O)N[C@@H](CC(C)C)C(=O)N[C@@H](CCCC)C(=O)N[C@@H](CCC(=O)O)C(=O)N[C@H](C(N)=O)[C@@H](C)O)C(C)C)C(=O)O [Peptide 68] (H-H[Aib]QGTFTSDVSK[αMeF]LDVK([PEG4-γGlu-Palmitoyl])RAQD[αMeF]VE[Aib]L[Nle]ET-NH2; N-terminus assumed) | 74.2
3 | 2.17 | 48.9 | 53.7 | CCCCCCCCCCCCCCCCCC(=O)N[C@@H](CCC(=O)N[C@@H](CCC(=O)NCCOCCOCCOCCOCCC(=O)NCCCC[C@H](NC(=O)[C@H](CO)NC(=O)[C@H](CC(=O)O)NC(=O)[C@H](CC(C)C)NC(=O)[C@](C)(Cc1ccccc1)NC(=O)[C@H](CCCCN)NC(=O)[C@H](CO)NC(=O)[C@@H](NC(=O)[C@H](CC(=O)O)NC(=O)[C@H](CO)NC(=O)[C@@H](NC(=O)[C@](C)(Cc1ccccc1)NC(=O)[C@H](CO)NC(=O)CNC(=O)[C@H](CCC(N)=O)NC(=O)C(C)(C)NC(=O)[C@@H](N)Cc1c[nH]cn1)[C@@H](C)O)C(C)C)C(=O)N[C@@H](C)C(=O)N[C@@H](C)C(=O)N[C@@H](CCC(N)=O)C(=O)N[C@@H](CC(=O)O)C(=O)N[C@@](C)(Cc1ccccc1)C(=O)N[C@H](C(=O)N[C@@H](CCC(=O)O)C(=O)NC(C)(C)C(=O)N[C@@H](CC(C)C)C(=O)N[C@@H](CCC(=O)O)C(=O)N[C@@H](C)C(=O)NCC(=O)NCC(N)=O)C(C)C)C(=O)O)C(=O)O [Peptide 71] (H-H[Aib]QGS[αMeF]TSDVSK[αMeF]LDSK([PEG4-γGlu-γGlu-Stearoyl])AAQD[αMeF]VE[Aib]LEAGG-NH2) | 80.6
